# Measurements as given in patent US9737510B2, “Indazole compounds and a process for the preparation thereof” (Council of Scientific & Industrial Research, priority 2013, dated 2017).
# Legend:
# C57BL/6J mice [1] = test: Oral glucose tolerance test, glucose reduction in non-diabetic C57BL/6J mice; format: in vivo; conditions: fasted male C57BL/6J mice, oral dose with 3 g/kg glucose, 0-120 minutes
# Description: 12-13 weeks male C57BL/6J mice were fasted overnight. In the morning animals were orally dosed with different concentrations of NDS100179 or control vehicle along with 3 g/kg of glucose. Blood glucose was measured just before the dose and then 30, 60 90 and 120 minutes after the compound dose.
# C57BL/6J mice [2] = test: Insulin increase / GSIS in C57BL/6J mice; format: in vivo
# Description: Insulin at 0 and 15 minutes time points was also measured in the studies conducted above where 12-13 weeks male C57BL/6J mice were fasted overnight and in the morning orally dosed with different concentrations of NDS100179 or control vehicle along with 3 g/kg of glucose.
# (§1) NDS100179 induced insulin measurements at low and high glucose condition were carried out in Human Islets, Mice and MIN6 cells.
# Metabolic study in HLM = format: in vitro ADME
# Pharmacokinetics in mice = format: in vivo
# Description: Based on the pharmacokinetics studies performed in Mice NDS100179 is 100% orally bioavailable compound (FIG. 9).
# Human Islets = test: GSIS enhancement in human islets; format: cell-based; conditions: low and high glucose
# Description: as §1
# MIN6 cells = test: Insulinotropic activity: insulin secretion from MIN6 cells (ELISA based assay); format: cell-based, mouse; conditions: for Insulin Secretion: standard error in bracket
# Description: Insulinotropic activity of the NDS100178 and NDS100179 was measured by a well-optimized ELISA based Assay (Shantani Protocol #5205) described below.
# Materials • MIN6Cell (source: National Center for Cell Sciences, Pune) • Mouse Insulin ELISA kit (Mercodia, 10-1247-01) • Plate Shaker (MixMatefromEppendorf) • HEPES Balanced Krebs-Ringer bicarbonate buffer (components as follows)
# Method • i. Seed proliferating culture of MIN-6 cells into a 6 well plate with almost half the confluency two days before the experiment. • ii. One the day of Insulin induction experiment, the cells should become almost confluent and are in good condition. • iii. On the day of experiment, first prepare 1×KRB-HEPES buffer with 0.1% BSA (for rinse) and without BSA (for equilibration and insulin induction) as described in the materials. • iv. Prepare equilibration buffer: 1×KRB-HEPES buffer without BSA containing 3.3 mM glucose (to bring down the glucose level of all cells to the same level). For example, add 66 ul 1 M glucose stock solution to 20 ml KRB-HEPES buffer without BSA. • v. Prepare the stimulating buffer (insulin induction): 1×KRB-HEPES buffer without BSA containing the defined glucose level (in most cases, it will be 16.7 mM glucose) and the desired concentration of molecule. • vi. Pre warm all the buffers to 37° C. in the water bath (at 15 minutes). • vii. Remove media from all wells, rinse each well twice with 2 ml KRB-HEPES buffer containing 0.1% BSA. • viii. Add 2 ml of equilibration buffer in each well and incubate at 37° C. for half an hour. • ix. After the incubation add 2 ml of stimulating buffer in respective wells (properly labelled) and incubate 37° C. for 1 hour. • x. In the meanwhile, turn on the refrigerated centrifuge and set the temperature to 4° C. Take out enzyme conjugate, diluent buffer, Calibrator 0 and stripes needed (for example, two stripes for 8 samples to be run in duplicate) from Mercodia ELISA kit box (store at 4° C.) and warm up them to RT. • xi. […] Centrifuge the tubes at 600 g for 5 min. • xiii. Take out 500 ul in fresh properly labelled precooled tubes. • xiv. Now dilute the samples 1:30 in calibrator 0 i.e. add 3 ul of each sample to 87 ul of Calibrator 0 in 8 different properly labelled 0.5 ml tubes. Mix them well. • xv. Prepare 1× enzyme conjugate buffer, i.e. mix 180 ul enzyme (11×) with 1800 ul diluent buffer for ELISA of two stripes. • xvi. Add 10 ul of each sample (diluted, in duplicate) in the two adjacent wells. Be careful not to touch the bottom. • xvii. Carefully add 100 ul of Enzyme Conjugate buffer (1×) to each well and incubate on a plate shaker (eppendorf MixMate) at 800 rpm for 2 hours at 25° C. • xviii. 45 min before the incubation is over take out wash buffer, substrate TMB and Stop solution. Keep them at RT. • xix. 5 min before the incubation is over prepare 1× wash buffer (21×), i.e. 40 ml distilled water+2 ml (21×) wash buffer in a reservoir. • xx. After the incubation is over, wash each well 7 times with 350 ul wash buffer. Use a multichannel (175 ul). • xxi. After the washing add 200 uL substrate TMB solution in each well. Maintain a proper pace. • xxii. Allow to incubate for 15 min. Set the program on the plate reader, to take absorbance read at 450 nm. Add a 5 sec shake step to allow proper mixing. • xxiii. After incubation immediately add 50 ul Stop solution in each well at same pace and take absorbance read at 450 nm.
# Assay conditions were kept same in all the assays. The difference in absorption-value for control experiment (no treatment with molecule) over different days is attributed to cell culture conditions. Other varying conditions are specified in the respective graphs.
# [Note: If not mentioned specifically, HG=High Glucose (16.7 mM), LG=Low Glucose (3.3 mM)]
# HepG2 cells = test: Glucose uptake (2-NBDG) in insulin resistant HepG2 cells; format: cell-based; conditions: 24 hours with drug, 2-NBDG 15 min
# Description: The assay was performed after making the HepG2 cells insulin resistant by culturing them in high glucose condition with respective drugs for 24 hours. The assay was performed after 24 hours by allowing the cells to starve for 2 hrs in serum free media (containing respective drug) followed by 30 min incubation in KRB buffer (with respective drugs) and lastly incubating with 2-NBDG (fluorescent glucose analgoue) for 15 min. The cells were thoroughly washed and lysed with 1% triton-X. The fluorescence reading was immediately taken at Ex:465 and […].
# db/db mice = test: 30 day oral treatment of db/db mice (fasted glucose, OGTT, beta-cell function, triglyceride, body weight); format: in vivo
# Description: db/db or leptin null mice are well accepted model of diabetes. 7 week old db/db mice were dosed orally with 10 mg/kg, 30 mg/kg of NDS100179 and vehicle alone for 30 days. Fasted plasma glucose levels in the animals were measured before the start of the study, at day 15 and day 30.
# 7 week db/db mice were dosed orally with 10 mg/kg, 30 mg/kg of NDS100179 and vehicle alone for 30 days. Beta-cell functionality was assessed using HOMA-beta % calculations at the end of 30 days.
# 7 week db/db mice were dosed orally with 10 mg/kg, 30 mg/kg of NDS100179 and vehicle alone for 30 days. Triglyceride levels were measured at the end of 30 days.
# 7 week db/db mice were dosed orally with 10 mg/kg, 30 mg/kg of NDS100179 and vehicle alone for 30 days. Animal body weight was measured every third day.
# CYP3A4 = CYP3A4 (Homo sapiens, UniProt P08684); test: CYP3A4 inhibition; format: in vitro ADME
# Kinetic solubility = format: physicochemical
# [3] = Metabolic study and intrinsic clearance in MLM; format: in vitro ADME
# [4] = oral 10 mg/kg, 30 mg/kg, end of 30 days
# Sequence of CYP3A4 (P08684 whole entry): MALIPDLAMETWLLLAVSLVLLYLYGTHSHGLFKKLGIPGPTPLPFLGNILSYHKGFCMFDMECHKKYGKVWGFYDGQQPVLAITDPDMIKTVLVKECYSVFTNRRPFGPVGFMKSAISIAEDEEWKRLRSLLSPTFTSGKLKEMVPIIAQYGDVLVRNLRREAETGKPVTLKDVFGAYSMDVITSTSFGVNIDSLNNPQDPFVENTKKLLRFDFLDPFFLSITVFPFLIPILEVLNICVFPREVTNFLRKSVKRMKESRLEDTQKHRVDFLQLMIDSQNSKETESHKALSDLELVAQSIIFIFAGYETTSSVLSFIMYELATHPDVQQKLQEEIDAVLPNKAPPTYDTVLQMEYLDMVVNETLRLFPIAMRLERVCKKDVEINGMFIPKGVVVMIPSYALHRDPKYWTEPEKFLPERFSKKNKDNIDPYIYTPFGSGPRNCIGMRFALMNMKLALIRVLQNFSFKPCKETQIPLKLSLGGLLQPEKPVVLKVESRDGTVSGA
substance,measurement,setting,value
"5-Chloro-3-(4,5-dihydro-1H-imidazol-2-yl)-1-methyl-3a,7a-dihydro-1H-indazole [NDS100179]",blood glucose (oral glucose tolerance test),C57BL/6J mice [1],dose dependently reduce the blood glucose
same,GSIS enhancement,"C57BL/6J mice [2]; Mice, low and high glucose",enhance insulin secretion only at high glucose concentration
same,insulin secretion in mice,"C57BL/6J mice [2]; fasted male C57BL/6J mice, oral dose with 3 g/kg glucose, 0 and 15 minutes",blood plasma concentration glucose dependent
same,Metabolic Study HLM Mean % PCR*,Metabolic study in HLM,80.11%
same,AUC(0-t),Pharmacokinetics in mice,837.113 ng·h/mL
same,AUC(inf),Pharmacokinetics in mice,854.231 ng·h/mL
same,AUC(inf)/AUC(0-t) %,Pharmacokinetics in mice,102.049%
same,Cmax,Pharmacokinetics in mice,631.1 ng/mL
same,Tmax,Pharmacokinetics in mice,15 min
same,oral bioavailability,Pharmacokinetics in mice,100%
same,t½,Pharmacokinetics in mice,102 min
same,GSIS enhancement,Human Islets,enhance insulin secretion only at high glucose concentration
same,insulin secretion from MIN6 cells in high glucose conditions,"MIN6 cells; 33 uM, 1 hour, high glucose (16.7 mM), three different days",significant increase in the insulin secretion
same,insulin secretion over control,"MIN6 cells; MIN6 cells, 10 nM",not found to be statistically significant
same,insulin secretion over control,"MIN6 cells; MIN6 cells, 50 nM",active insulinotrope
same,insulin secretion over control,"MIN6 cells; MIN6 cells, 100 nM",active insulinotrope
same,Insulin Secretion,"MIN6 cells; MIN6 cells, compound 0.1 μM",5.55 (1.0) ng/ml
same,Insulin Secretion,"MIN6 cells; MIN6 cells, compound 1.0 μM",10.27 (0.6) ng/ml
same,Insulin Secretion,"MIN6 cells; MIN6 cells, compound 10.0 μM",15.45 (1.2) ng/ml
same,glucose dependence of insulinotropic activity,"MIN6 cells; MIN6 cells, high glucose vs lower glucose conditions",glucose dependent
same,GSIS enhancement,"MIN6 cells; MIN6 cells, low and high glucose",enhance insulin secretion only at high glucose concentration
same,glucose uptake in HepG2 cells,HepG2 cells,increase glucose uptake
same,glucose tolerance (OGTT),db/db mice; at the end of 30 days of oral treatment,significant improvement in glucose tolerance
same,fasted plasma glucose (basal glucose level),"db/db mice; oral 10 mg/kg and 30 mg/kg for 30 days, day 0, 15, 30",significant control in rise of basal glucose level
same,body weight,"db/db mice; oral 10 mg/kg, 30 mg/kg for 30 days, measured every third day",No significant change in body weight
same,beta-cell function (HOMA-beta %),db/db mice; [4],significant improvements in beta-cell functions
same,triglyceride levels,db/db mice; [4],significant reduction in triglyceride levels
same,rise in fasted blood glucose levels,db/db mice; oral 30 mg/kg for 30 days,no statistically significant rise
same,CYP3A4 Inhibition,CYP3A4,No inhibition
same,solubility kinetic,Kinetic solubility,205.27 µM
same,Intrinsic Clearnace MLM,[3],63.7 μl/min/mg of protein
same,Metabolic Study MLM Mean % PCR*,[3],39.25%
